Test results from patent EP3623369A1, “NOVEL MORPHOLINYL AMINE COMPOUNDS FOR THE TREATMENT OF AUTOIMMUNE DISEASE” (F. Hoffmann-La Roche AG, priority 2018, dated 2020).
Like-named read-outs stand apart in the source and are kept apart here.

How the values were obtained:
[1] = molecular target: T1, hTLR9 (Homo sapiens, UniProt Q9NR96); assay: HEK293-Blue-hTLR-9 cells assay (SEAP reporter, ODN2006 stimulation); assay type: cell-based; details: HEK293-Blue-hTLR9 cells, ODN2006, 20 hrs; 0.032 is the lowest tested concentration; read-out: HEK/hTLR9 IC50
T1 sequence (Q9NR96 26-1032): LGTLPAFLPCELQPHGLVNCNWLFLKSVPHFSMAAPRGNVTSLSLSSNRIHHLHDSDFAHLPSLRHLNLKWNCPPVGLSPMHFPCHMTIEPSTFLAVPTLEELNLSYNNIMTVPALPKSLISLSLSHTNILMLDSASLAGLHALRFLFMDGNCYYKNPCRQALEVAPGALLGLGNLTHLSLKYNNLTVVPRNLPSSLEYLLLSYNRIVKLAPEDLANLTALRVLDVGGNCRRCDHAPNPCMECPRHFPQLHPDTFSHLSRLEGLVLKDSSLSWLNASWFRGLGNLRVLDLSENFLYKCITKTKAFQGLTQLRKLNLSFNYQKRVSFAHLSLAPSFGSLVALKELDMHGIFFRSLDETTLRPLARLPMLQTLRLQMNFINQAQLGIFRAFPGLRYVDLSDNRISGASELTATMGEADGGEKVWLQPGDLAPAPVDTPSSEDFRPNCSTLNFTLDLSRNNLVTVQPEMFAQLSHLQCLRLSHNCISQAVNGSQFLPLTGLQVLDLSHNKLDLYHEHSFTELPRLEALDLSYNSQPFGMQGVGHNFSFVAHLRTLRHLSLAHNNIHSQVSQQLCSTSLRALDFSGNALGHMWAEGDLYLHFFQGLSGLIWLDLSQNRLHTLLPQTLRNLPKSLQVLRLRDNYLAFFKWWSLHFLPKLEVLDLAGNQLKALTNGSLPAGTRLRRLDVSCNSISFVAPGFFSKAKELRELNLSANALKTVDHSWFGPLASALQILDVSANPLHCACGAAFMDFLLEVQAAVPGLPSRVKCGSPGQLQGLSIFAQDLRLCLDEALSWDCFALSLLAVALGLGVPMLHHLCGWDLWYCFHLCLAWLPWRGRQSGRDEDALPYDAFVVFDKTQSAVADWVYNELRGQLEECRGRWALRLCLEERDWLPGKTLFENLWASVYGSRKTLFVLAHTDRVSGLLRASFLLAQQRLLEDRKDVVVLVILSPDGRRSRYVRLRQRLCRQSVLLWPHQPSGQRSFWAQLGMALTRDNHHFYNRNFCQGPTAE
Method in brief: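 HEK293-Blue cells with an NF-κB/AP-1-driven SEAP reporter were exposed to serially diluted compound (1% DMSO final) plus ODN2006 for 20 h at 37 °C. Supernatant SEAP was developed with QUANTI-Blue for 2 h at 37 °C and absorbance read at 620–655 nm; antagonism appears as reduced reporter signal.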

[2] = Human microsome stability assay; assay type: in vitro ADME; details: human liver microsomes, 1 µM test compound, 0.5 mg/mL protein, 37°C, up to 30 minutes
Protocol: Human microsome stability assay
The human microsomal stability assay is used for early assessment of metabolic stability of a test compound in human liver microsomes.
Human liver microsomes (Cat.NO.: 452117, Corning, USA;Cat.NO.:H2610, Xenotech, USA) were preincubated with test compound for 10 minutes at 37°C in 100 mM potassium phosphate buffer, pH 7.4. The reactions were initiated by adding NADPH regenerating system. The final incubation mixtures contained 1 µM test compound, 0.5 mg/mL liver microsomal protein, 1 mM MgCl2, 1 mM NADP, 1 unit/mL isocitric dehydrogenase and 6 mM isocitric acid in 100 mM potassium phosphate buffer, pH 7.4. After incubation times of 0, 3, 6, 9, 15 and 30 minutes at 37°C, 300 µL of cold acetonitrile (including internal standard) was added to 100 µL incubation mixture to terminate the reaction. Following precipitation and centrifugation, the amount of compound remaining in the samples were determined by LC-MS/MS. Controls of no NADPH regenerating system at zero and 30 minutes were also prepared and analyzed. […] Table 3. Human liver microsome stability of the compounds of present invention

[3] = molecular target: T1, hTLR9; set-up: host or cells: HEK; details: data disclosed in US20150105370; read-out: HEK/hTLR9 IC50; cited from earlier work

Structure (SMILES)	IC50 [1]	Clearance of Human microsome [2]	IC50 [3]
C[C@@H]1CN(c2ccc(C#N)c3ncccc23)C[C@H](CN2Cc3ccc(N4CCNCC4)cc3C2)O1 [Example 21, 5-[(2R,6S)-2-methyl-6-[(5-piperazin-1-ylisoindolin-2-yl)methyl]morpholin-4-yl]quinoline-8-carbonitrile]	55 nM	6.15 mL/min/kg	
C[C@@H]1CN(c2ccc(C#N)c3ncccc23)C[C@H](CN2Cc3ccccc3C2)O1 [Example R3, 5-[(2S,6R)-2-(isoindolin-2-ylmethyl)-6-methyl-morpholin-4-yl]quinoline-8-carbonitrile, reference compound]	5540 nM	15.4 mL/min/kg	
C[C@@H]1CN(c2ccc(C#N)c3ncccc23)C[C@H](CN2Cc3ccc(N4CC5(CCN5)C4)cc3C2)O1 [Example 55, 5-[(2S,6R)-2-[[5-(1,6-diazaspiro[3.3]heptan-6-yl)isoindolin-2-yl]methyl]-6-methyl-morpholin-4-yl]quinoline-8-carbonitrile]	84 nM	7.09 mL/min/kg	
C[C@@H]1CN(c2ccc3c(c2)CN(C[C@H]2CN(c4ccc(C#N)c5ncccc45)C[C@@H](C)O2)C3)CCN1 [Example 62, 5-[(2R,6S)-2-methyl-6-[[5-[(3R)-3-methylpiperazin-1-yl]isoindolin-2-yl]methyl]morpholin-4-yl] quinoline-8-carbonitrile]	62 nM	6.39 mL/min/kg	
C[C@@H]1CN(c2ccc(C#N)n3nccc23)C[C@H](CNCc2ccc(N3CCNCC3)cc2)O1 [Example 16, 4-[(2R,6S)-2-methyl-6-[[(4-piperazin-1-ylphenyl)methylamino]methyl]morpholin-4-yl]pyrazolo[1,5-a]pyridine-7-carbonitrile]	82 nM	7.31 mL/min/kg	
C[C@@H]1CN(c2ccc(C#N)c3ncccc23)C[C@H](CN2CCc3cc(N4CCNCC4)ccc3C2)O1 [Example 19, 5-[(2R,6S)-2-methyl-6-[(6-piperazin-1-yl-3,4-dihydro-1H-isoquinolin-2-yl)methyl]morpholin-4-yl]quinoline-8-carbonitrile]	64 nM	6.17 mL/min/kg	
C[C@@H]1CN(c2ccc(C#N)c3ncccc23)C[C@H](CNCc2ccccc2)O1 [ER-886509, reference compound]	2080 nM	15.2 mL/min/kg	3940 nM
C[C@@H]1CN(c2ccc(C#N)c3ncccc23)C[C@H](CN2Cc3ccc(N4CCNCC4C(F)F)cc3C2)O1 (stereo partly drawn) [Example 76, 5-[(2S,6R)-2-[[5-[2-(difluoromethyl)piperazin-1-yl]isoindolin-2-yl]methyl]-6-methyl-morpholin-4-yl]quinoline-8-carbonitrile]	190 nM		
